From patent US8080563B2, “Bicyclic heteroaryl inhibitors of PDE4” (Kalypsys, priority 2006, dated 2011)

Key:
PDE4B = molecular target: T1, PDE4B (Homo sapiens, UniProt Q07343); assay: Coupled PDE/AK bioluminescent assay of PDE inhibition; assay type: biochemical; settings: PDE4B catalytic domain
T1 construct: hex-histidine (His6) (N); made in house
Excerpt: Phosphodiesterases regulate the activity of the second messenger cyclic adenosine monophosphate (cAMP) by hydrolyzing cAMP to adenosine monophosphate (AMP). We developed a novel coupled PDE/AK bioluminescent high-throughput assay to measure the activity of phosphodiesterases. In the PDE/AK assay, the AMP produced from the hydrolysis of cAMP by phosphodiesterase is converted to adenosine diphosphate (ADP) by the phosphotransferase activity of adenylate kinase (also known as ADK or myokinase). Adenylate kinase will catalyze the conversion of 1 mole of AMP and 1 mole of ATP into 2 moles of ADP. Thus the conversion of AMP to ADP will result in the subsequent loss of ATP. The decrease in ATP concentration can be monitored as light output using luciferase in a reaction that requires ATP to produce light. The PDE/AK assay uses luciferase, which catalyzes the production of light from ATP present in the reaction mix. The amount of emitted light is inversely proportional to the level of AMP present in the reaction. Test compounds are incubated with the phosphodiesterases and phosphodiesterase inhibitors will decrease the rate of cAMP hydrolysis and decrease the subsequent production of AMP. Thus phosphodiesterase inhibitors will decrease the conversion of ATP to ADP and result in the greatest emission of light.
Compounds may be screened for functional potency in in vitro biochemical assays for their ability to inhibit the activity of phosphodiesterase (PDE) enzymes. A novel coupled PDE/AK assay was utilized to measure the inhibitory activity of compounds on PDE isoforms. The catalytic domain of PDE4B was fused to an amino-terminus hex-histidine affinity tag and purified. PDE4B enzyme was incubated with compounds for 10 minutes. Cyclic AMP substrate, ATP and adenylate kinase were then added to the PDE enzyme mix and incubated for 45 minutes at room temperature. A commercial ATP detection assay, Perkin Elmer's easyLite ATP detection reagent, was then added to measure the relative amount of ATP present in the reaction. After […], the luminescent signal was quantitated with either the Perkin Elmer Viewlux or Molecular Devices Acquest or Analyst. Roflumilast and Rolipram are the positive controls used in the assay.

[1] = test system: Lacrimal Gland Inflammation-Induced Dry Eye in Rabbits; assay: Lacrimal gland inflammation-induced dry eye in rabbits (corneal staining, tear breakup time); assay type: in vivo; settings: topical ocular BID; for Activity at Percent Concentration Tested 1 × 10^−2: 1 × 10^−2 percent concentration; for Activity at Percent Concentration Tested 1 × 10^−4: 1 × 10^−4 percent concentration; for Activity at Percent Concentration Tested 1 × 10^−6: 1 × 10^−6 percent concentration
Excerpt: A more detailed description of the assay used herein may be found in Naglehout, T J et al. 2005, “Preservation of Tear Film Integrity and Inhibition of Corneal Injury by Dexamethasone in a Rabbit Model of Lacrimal Gland Inflammation-Induced Dry Eye,” J. Ocular Pharm. Ther., 21:2. 139-148, the disclosure of which is hereby incorporated by reference as if written herein in its entirety.
Rabbits (n=4/group) were randomized into treatment groups and dosed topically BID with maxidex vehicle or test drug beginning one day prior to initiation of dry eye. Each rabbit received bilateral lacrimal gland injections of saline or ConA (300 μg/30 μl) and topical ocular dosing was continued BID throughout the study.
Desiccation was initiated 1-2 hours following lacrimal gland injection by placing conscious rabbits in the environmental chamber (10-15% humidity/72° F.). Following 72 consecutive hours of exposure to this dry environment, the animals were anesthetized and sutures were placed in each upper and lower eyelid and lifted to form a corneal/conjunctival cup. Methylene blue dye (1 mL, 1% in dH2O) was added to the cup for three minutes and the excess removed by washing with 200 mL BSS®. The contralateral eye was then stained using the same procedure. Rabbits were euthanized immediately following the staining procedure and the eyes were excised. The corneas were isolated with a trephine and the 9.5-mm punch of the cornea was placed in 2 mL acetone/saturated sodium sulfate (7:3, vol./vol.). Absorbance of the extracted dye was determined at 660 nm.
TBUT was quantified in a separate group of treated animals. TBUT was determined by instilling 5 μL sodium fluorescein into the cul de sac and manually blinking the lids to distribute the fluorescein within the tear film. Under slit lamp observation, the eye was held open and the time whereby one or more black spots or streaks appeared in the precorneal tear film was recorded. The rabbits were euthanized 3 days following ConA injection.

T1 sequence (Q07343 330-659 limits assumed, species assumed): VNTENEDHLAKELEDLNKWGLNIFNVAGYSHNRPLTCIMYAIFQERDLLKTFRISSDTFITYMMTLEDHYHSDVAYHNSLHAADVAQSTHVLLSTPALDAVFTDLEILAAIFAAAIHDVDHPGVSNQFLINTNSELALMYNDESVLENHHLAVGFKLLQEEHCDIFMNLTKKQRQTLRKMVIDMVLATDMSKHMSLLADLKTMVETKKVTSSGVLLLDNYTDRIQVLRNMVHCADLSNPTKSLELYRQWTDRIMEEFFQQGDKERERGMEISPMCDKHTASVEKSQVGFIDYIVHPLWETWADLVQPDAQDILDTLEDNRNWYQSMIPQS

## COc1ccc2c(Nc3c(Cl)cncc3Cl)c(Br)c(=O)n(Br)c2c1OC1CCCC1 [Example 6, 1,3-Dibromo-8-(cyclopentyloxy)-4-(3,5-dichloropyridin-4-ylamino)-7-methoxyquinolin-2(1H)-one]
PDE4B
  IC50: ≤ 1000 nM

## COc1ccc2c(Oc3c(Cl)cncc3Cl)cc(=O)[nH]c2c1OC1CCCC1 [Example 2, 8-(Cyclopentyloxy)-4-(3,5-dichloropyridin-4-yloxy)-7-methoxyquinolin-2(1H)-one]
PDE4B
  IC50: ≤ 1000 nM

## COc1ccc2c(Nc3c(Cl)cncc3Cl)cc(=O)n(CCN(C)C)c2c1OC1CCCC1 [Example 10, 8-(Cyclopentyloxy)-4-(3,5-dichloropyridin-4-ylamino)-1-(2-(dimethylamino)ethyl)-7-methoxyquinolin-2(1H)-one]
PDE4B
  IC50: ≤ 1000 nM

## COc1ccc2c(Nc3c(Cl)cncc3Cl)cc(=O)[nH]c2c1OCC1CC1 [Example 3, 8-(Cyclopropylmethoxy)-4-(3,5-dichloropyridin-4-ylamino)-7-methoxyquinolin-2(1H)-one]
PDE4B
  IC50: ≤ 1000 nM

## COc1ccc2c(Nc3c(C)cncc3C)cc(=O)[nH]c2c1OCC1CC1 [Example 8, 8-(Cyclopropylmethoxy)-4-(3,5-dimethylpyridin-4-ylamino)-7-methoxyquinolin-2(1H)-one]
[1]
  Activity at Percent Concentration Tested 1 × 10^−2: Inactive
  Activity at Percent Concentration Tested 1 × 10^−4: Inactive
  Activity at Percent Concentration Tested 1 × 10^−6: Inactive
PDE4B
  IC50: ≤ 1000 nM

## COc1ccc2c(Nc3c(C)cncc3C)cc(=O)[nH]c2c1OCC(C)C [Example 12, 4-(3,5-Dimethylpyridin-4-ylamino)-8-isobutoxy-7-methoxyquinolin-2(1H)-one]
PDE4B
  IC50: ≤ 1000 nM

## COc1ccc2c(Nc3c(Cl)cncc3Cl)cc(=O)[nH]c2c1OC1CCCC1 [Example 1, 8-(Cyclopentyloxy)-4-(3,5-dichloropyridin-4-ylamino)-7-methoxyquinolin-2(1H)-one]
[1]; 1 percent concentration
  Activity at Percent Concentration Tested 1: Inactive
[1]; 1 × 10^−1 percent concentration
  Activity at Percent Concentration Tested 1 × 10^−1: Inactive
[1]
  Activity at Percent Concentration Tested 1 × 10^−2: Inactive
PDE4B
  IC50: ≤ 1000 nM

## COc1ccc2c(Nc3c(Cl)cncc3Cl)cc(=O)[nH]c2c1OCCCCN(C)C [Example 13, 4-(3,5-Dichloropyridin-4-ylamino)-8-(4-(dimethylamino)butoxy) -7-methoxyquinolin-2(1H)-one]
PDE4B
  IC50: ≤ 1000 nM

## COc1ccc2c(Nc3c(Cl)cncc3Cl)cc(=O)n(C)c2c1OC1CCCC1 [Example 4, 8-(Cyclopentyloxy)-4-(3,5-dichloropyridin-4-ylamino)-7-methoxy-1-methylquinolin-2(1H)-one]
PDE4B
  IC50: ≤ 1000 nM

## COc1ccc2c(Nc3c(Cl)cncc3Cl)cc(=O)[nH]c2c1OCCCCCN(C)C [Example 14, 4-(3,5-Dichloropyridin-4-ylamino)-8-(5-(dimethylamino)pentyloxy)-7-methoxyquinolin-2(1H)-one]
PDE4B
  IC50: ≤ 1000 nM

## COc1ccc2c(Nc3c(C)cncc3C)cc(=O)[nH]c2c1OC1CCCC1 [Example 5, 8-(Cyclopentyloxy)-4-(3,5-dimethylpyridin-4-ylamino)-7-methoxyquinolin-2(1H)-one]
[1]
  Activity at Percent Concentration Tested 1 × 10^−2: Inactive
  Activity at Percent Concentration Tested 1 × 10^−4: Inactive
  Activity at Percent Concentration Tested 1 × 10^−6: Inactive
PDE4B
  IC50: ≤ 1000 nM

## COc1ccc2c(Nc3c(Cl)cncc3Cl)cc(=O)n(CCO)c2c1OC1CCCC1 [Example 9, 8-(Cyclopentyloxy)-4-(3,5-dichloropyridin-4-ylamino)-1-(2-hydroxyethyl)-7-methoxyquinolin-2(1H)-one]
PDE4B
  IC50: ≤ 1000 nM

## COc1ccc2c(Nc3c(Cl)cncc3Cl)c(Br)c(=O)[nH]c2c1OC1CCCC1 [Example 7, 3-Bromo-8-(cyclopentyloxy)-4-(3,5-dichloropyridin-4-ylamino)-7-methoxyquinolin-2(1H)-one]
PDE4B
  IC50: ≤ 1000 nM

## COc1ccc2c(Nc3c(Cl)cncc3Cl)cc(=O)[nH]c2c1OCCCCCC(=O)O [Example 11, 6-(4-(3,5-Dichloropyridin-4-ylamino)-7-methoxy-2-oxo-1,2-dihydroquinolin-8-yloxy)hexanoic acid]
PDE4B
  IC50: ≤ 1000 nM
